The nature of data set [1]: Solubility test of ionic liquid in fluorine-based solvent VERTREL XF. The following applies: for Solubility to fluorine-based solvent: VERTREL XF [CF3(CHF)2CF2CF3], 25° C., ultrasonic 5 minutes, left 1 day, visual.
Procedure: A solubility test was performed on the ionic liquid synthesized each of Examples and each of Comparative Examples using VERTREL XF [CF3(CHF)2CF2CF3] available from Du Pont-Mitsui Fluorochemicals Company, Ltd. as a fluorine-based solvent.
The ionic liquid was added to the predetermined mass of VERTREL XF.
Specifically, 0.5 parts by mass or 0.1 parts by mass of each ionic liquid was added to 100 parts by mass of VERTREL XF (25° C.).
Note that, a case where the mixture was visually observed to be transparent, the ionic liquid was judged as being dissolved. A case where the mixture was not transparent or insoluble matter was observed, the ionic liquid was judged as not being dissolved (insoluble).
The ionic liquid was dissolved when 0.5 parts by mass of the ionic liquid was added.
The ionic liquid was not dissolved when 0.5 parts by mass of the ionic liquid was added, but the ionic liquid was dissolved when 0.1 parts by mass of the ionic liquid was added.
The ionic liquid was not dissolved both when 0.5 parts by mass of the ionic liquid was added and when 0.1 parts by mass of the ionic liquid was added.
A short description of data set [2]: Thermal stability measurement (TG/DTA weight reduction temperature). Particulars: for Weight reduction temperature 5% / Weight reduction temperature 10% / Weight reduction temperature 20%: TG/DTA, air 200 mL/min, 10° C./min, 30° C. to 600° C.; for 5%, 10%, 20% weight reduction temperatures (thermal stability) higher than perfluoropolyether Z-DOL (Comparative Example 11C) by: difference to Z-DOL; for 5%, 10%, 20% weight reduction temperatures (thermal stability) higher than Z-TETRAOL (Comparative Example 12C) by: difference to Z-TETRAOL.

We go through nine molecules from patent US20180237713A1, “Ionic Liquid, Lubricant, and Magnetic Recording Medium” (priority 2015, published 2018).

As for `CCCCCCCCCCCCCCCCCCn1cc[n+](CCCCC[n+]2ccn(CCCCCCCCCCCCCCCCCC)c2)c1.O=S(=O)([N-]S(=O)(=O)C(F)(F)C(F)(F)C(F)(F)C(F)(F)F)C(F)(F)C(F)(F)C(F)(F)C(F)(F)F.O=S(=O)([N-]S(=O)(=O)C(F)(F)C(F)(F)C(F)(F)C(F)(F)F)C(F)(F)C(F)(F)C(F)(F)C(F)(F)F` [Comp. Ex. 9A, 1,5-bis[bis(nonafluorobutanesulfonyl)imide-1-octadecylimidazolium]pentane, reference compound], the “Solubility to fluorine-based solvent” value in data set [1] was “less than 0.1% by mass”.
For the molecule `CCCCCCCCCCCCCCCCCC[N+]1=C2CCCCCN2CCC1.O=S(=O)([O-])C(F)(F)F` [Ex. 7A, trifluoromethanesulfonic acid-8-octadecyl-1,8-diazabicyclo[5.4.0]-7-undecenium], the “Solubility to fluorine-based solvent” value in data set [1] is recorded as 0.5% by mass or greater; in data set [1] (listed as Example 7A), at least 0.5 % by mass.
Consider “tris(trifluoromethanesulfonyl)methide-6-octadecyl-1,8-diazabicyclo[5.4.0]-7-undecenium [Comp. Ex. 3A, reference compound]”, for which, in data set [1] (VERTREL XF), the “Dissolved or not in fluorine-based solvent” value is given as “not dissolved”. For the same molecule, the “Solubility to fluorine-based solvent” value in data set [1] is “less than 0.1% by mass”.
In the case of `CCCCCCCCCCCCCCCCCCC1CCCCN2CCCN=C12.O=S(=O)(NS(=O)(=O)C(F)(F)C(F)(F)C(F)(F)C(F)(F)F)C(F)(F)C(F)(F)C(F)(F)C(F)(F)F`, in data set [2], the “Weight reduction temperature 5%” value turned out to be 352.9 °C; the “Weight reduction temperature 10%” value was 378.2 °C; the “Weight reduction temperature 20%” value turned out to be 396.7 °C; the “5%, 10%, 20% weight reduction temperatures (thermal stability) higher than perfluoropolyether Z-DOL (Comparative Example 11C) by” value was at least 100 °C. Moreover, the “5%, 10%, 20% weight reduction temperatures (thermal stability) higher than Z-TETRAOL (Comparative Example 12C) by” value in data set [2] is at least 50 °C.
Turning to `CCCCCCCCCCCCCCCCCCn1cc[n+](CCCCC[n+]2ccn(CCCCCCCCCCCCCCCCCC)c2)c1.O=S(=O)([N-]S(=O)(=O)C(F)(F)C(F)(F)C(F)(F)C(F)(F)F)C(F)(F)C(F)(F)C(F)(F)C(F)(F)F.O=S(=O)([N-]S(=O)(=O)C(F)(F)C(F)(F)C(F)(F)C(F)(F)F)C(F)(F)C(F)(F)C(F)(F)C(F)(F)F`, in data set [2], the “Weight reduction temperature 5%” value worked out at 360.1 °C; the “Weight reduction temperature 10%” value was determined as 384.4 °C; the “Weight reduction temperature 20%” value was found to be 402.0 °C; the “5%, 10%, 20% weight reduction temperatures (thermal stability) higher than perfluoropolyether Z-DOL (Comparative Example 11C) by” value is at least 170 °C. Also, the “5%, 10%, 20% weight reduction temperatures (thermal stability) higher than Z-TETRAOL (Comparative Example 12C) by” value in data set [2] is at least 120 °C.
Turning to `C[n+]1ccn(CCC(F)(F)C(F)(F)C(F)(F)C(F)(F)C(F)(F)C(F)(F)C(F)(F)C(F)(F)F)c1.O=S(=O)([N-]S(=O)(=O)C(F)(F)C(F)(F)C(F)(F)C(F)(F)F)C(F)(F)C(F)(F)C(F)(F)C(F)(F)F`, in data set [2], the “5%, 10%, 20% weight reduction temperatures (thermal stability) higher than perfluoropolyether Z-DOL (Comparative Example 11C) by” value is at least 150 °C and the “5%, 10%, 20% weight reduction temperatures (thermal stability) higher than Z-TETRAOL (Comparative Example 12C) by” value was at least 90 °C.
Take “tris(trifluoromethanesulfonyl)methide-6-octadecyl-1,8-diazabicyclo[5.4.0]-7-undecenium”: in data set [2], the “Thermal stability compared to perfluoropolyether Z-DOL or Z-TETRAOL” value was “high”, the “Weight reduction temperature 5%” value worked out at 354.9 °C, the “Weight reduction temperature 10%” value came out at 385.0 °C and the “Weight reduction temperature 20%” value came out at 404.3 °C.
With `CCCCCCCCCCCCCCCCCCn1cc[n+](CCCCCCCCC[n+]2ccn(CCCCCCCCCCCCCCCCCC)c2)c1.O=S(=O)([N-]S(=O)(=O)C(F)(F)C(F)(F)C(F)(F)C(F)(F)F)C(F)(F)C(F)(F)C(F)(F)C(F)(F)F.O=S(=O)([N-]S(=O)(=O)C(F)(F)C(F)(F)C(F)(F)C(F)(F)F)C(F)(F)C(F)(F)C(F)(F)C(F)(F)F`, in data set [2], the “5%, 10%, 20% weight reduction temperatures (thermal stability) higher than perfluoropolyether Z-DOL (Comparative Example 11C) by” value was at least 170 °C and the “5%, 10%, 20% weight reduction temperatures (thermal stability) higher than Z-TETRAOL (Comparative Example 12C) by” value is at least 110 °C.
On to `CCCCCCCCCCCCCCCCCC[n+]1ccn(CCCC)c1.O=S(=O)([N-]S(=O)(=O)C(F)(F)C(F)(F)C(F)(F)C(F)(F)F)C(F)(F)C(F)(F)C(F)(F)C(F)(F)F`, for which the “Thermal stability compared to perfluoropolyether Z-DOL or Z-TETRAOL” value in data set [2] is listed as “high”.
